Consider nine compounds from patent US20240148821A1, “PHARMACEUTICAL USE OF CYCLIC PEPTIDE COMPOUND” (CHUGAI SEIYAKU KABUSHIKI KAISHA, priority 2021, published 2024).

Structures are written as SMILES. Numbered stars: 1 amine (or outer) side, 2 acyl side, 3 side chain; on linkers, the order of the positions; unused ones are H or OH. Bridge positions count the residues as written; N and C are the ends. Square brackets hold non-standard residues; d marks the D form. Peptide text beside a SMILES is read from it. * marks the point of attachment. hPhe(3,5-F2-4-CF3) = N[C@@H](CCc1cc(F)c(C(F)(F)F)c(F)c1)C(=O)O; hPhe(3-Cl-4-CF3) = N[C@@H](CCc1ccc(C(F)(F)F)c(Cl)c1)C(=O)O; NMePhe(4-CF3) = CN[C@@H](Cc1ccc(C(F)(F)F)cc1)C(=O)O; NEtPhe(4-Me) = CCN[C@@H](Cc1ccc(C)cc1)C(=O)O; NMePhe(2-Cl) = CN[C@@H](Cc1ccccc1Cl)C(=O)O; NMedβ3hAla = C[C@H](CC(=O)[*:2])N(C)[*:1]; NMeGly(cPent) = CN[C@H](C(=O)O)C1CCCC1; Pro(4,4-F2) = O=C(O)[C@@H]1CC(F)(F)CN1; NMeGly(cBu) = CN[C@H](C(=O)O)C1CCC1; NMeCha = CN[C@@H](CC1CCCCC1)C(=O)O; Ala(cPr) = N[C@@H](CC1CC1)C(=O)O; NMeCba = CN[C@@H](CC1CCC1)C(=O)O; NMeChg = CN[C@H](C(=O)O)C1CCCCC1; NMeI = CC[C@H](C)[C@H](NC)C(=O)O; N(CH2CH2)2CF2 = FC1(F)CCN(*)CC1; NMeD = CN[C@@H](CC(=O)O)C(=O)O; NMeL = CN[C@@H](CC(C)C)C(=O)O; NMeV = CN[C@H](C(=O)O)C(C)C; d(β3hA) = C[C@@H](N)CC(=O)O; NMeS = CN[C@@H](CO)C(=O)O; NMeA = CN[C@@H](C)C(=O)O; Piperidide = C1CCN(*)CC1; Pyrrolidide = C1CCN(*)C1; dNMeA = CN[C@H](C)C(=O)O; Ac5c = NC1(C(=O)O)CCCC1; Aze = O=C(O)[C@@H]1CCN1; Ac4c = NC1(C(=O)O)CCC1; Isopentyl = CC(C)CC*; Sar = CNCC(=O)O

Broadly, the IC50 is the point on the concentration scale where inhibition reaches its midpoint.

The target of this assay is protein-protein interaction between Kras and SOS1 (biotin-tagged human Kras loaded with GDP, His-tagged human SOS1) (Homo sapiens (Human), UniProt P01116, G12D). Description: Protein-protein interaction inhibition between Kras and SOS1 (KrasG12D-SOS PPI) using AlphaScreen.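 Note: kras produced in E. coli, Ni-coupled donor beads and streptavidin acceptor beads, excitation 680 nm with emission detected at 520–620 nm via singlet oxygen transfer.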 Format: biochemical. The note with it: AlphaScreen; biotin-tagged human Kras loaded with GDP, His-tagged human SOS1; read-out: KRAS G12D-SOS PPI IC50. In general terms: Bead proximity is the source of the signal in Alpha formats.
As for `CC[C@H](C)[C@@H]1NC(=O)[C@H](CC(C)C)N(C)C(=O)C[C@@H](C(=O)N2CCCCC2)N(C)C(=O)[C@H](C(C)C)N(C)C(=O)C2(CCCC2)NC(=O)[C@@H]2CCCN2C(=O)[C@H](CCc2ccc(C(F)(F)F)c(Cl)c2)NC(=O)CN(C)C(=O)[C@H](C2CCC2)N(C)C(=O)[C@@H]2CCN2C(=O)[C@H](C)N(C)C1=O` [Compound 446] ([NMeL]I[NMeA][Aze][NMeGly(cBu)][Sar][hPhe(3-Cl-4-CF3)]P[Ac5c][NMeV][NMeD]-Piperidide; lactam N-11), the IC50 was determined as 0.0018 µM.

Regarding `CC[C@H](C)[C@@H]1NC(=O)[C@H](CC(C)C)N(C)C(=O)C[C@@H](C)NC(=O)[C@H](C(C)C)N(C)C(=O)C2(CCCC2)NC(=O)[C@H](CC(=O)N2CCC(F)(F)CC2)N(C)C(=O)[C@H](CCc2ccc(C(F)(F)F)c(Cl)c2)NC(=O)CN(C)C(=O)[C@H](CC2CCCCC2)N(C)C(=O)CN(C)C(=O)CN(C)C1=O` [Compound 452] (cyclo([Ac5c][NMeV][d(β3hA)][NMeL]I[Sar][Sar][NMeCha][Sar][hPhe(3-Cl-4-CF3)][NMeD](N(CH2CH2)2CF2))), the IC50 stood at 0.08 µM. For `CC[C@H](C)[C@@H]1NC(=O)[C@H](CC(C)C)N(C)C(=O)C[C@@H](C(=O)N2CCCC2)NC(=O)[C@H]([C@@H](C)CC)N(C)C(=O)C2(CCCC2)NC(=O)[C@@H]2CCCN2C(=O)[C@H](CCc2ccc(C(F)(F)F)c(Cl)c2)NC(=O)CN(C)C(=O)[C@H](CC2CCCCC2)N(C)C(=O)[C@@H]2CCN2C(=O)[C@H](C)N(C)C1=O` [Compound 453] ([NMeL]I[NMeA][Aze][NMeCha][Sar][hPhe(3-Cl-4-CF3)]P[Ac5c][NMeI]D-Pyrrolidide; lactam N-11), the IC50 was 0.017 µM.

On to `CC[C@H](C)[C@@H]1NC(=O)[C@H](CC2CCC2)N(C)C(=O)C[C@@H](C)NC(=O)[C@H](C(C)C)N(C)C(=O)C2(CCCC2)NC(=O)[C@@H]2CCCN2C(=O)[C@H](CCc2ccc(C(F)(F)F)c(Cl)c2)NC(=O)CN(C)C(=O)[C@H](CC2CCCCC2)N(C)C(=O)[C@@H]2CCN2C(=O)[C@H](C)N(C)C1=O` [Compound 455] (cyclo([Ac5c][NMeV][d(β3hA)][NMeCba]I[NMeA][Aze][NMeCha][Sar][hPhe(3-Cl-4-CF3)]P)), for which the IC50 is 0.059 µM. As for `CC[C@H](C)[C@@H]1NC(=O)[C@H](CC(C)C)N(C)C(=O)C[C@@H](C)N(C)C(=O)[C@H]([C@@H](C)CC)N(C)C(=O)C2(CCC2)NC(=O)[C@@H]2CC(F)(F)CN2C(=O)[C@H](CCc2ccc(C(F)(F)F)c(Cl)c2)NC(=O)CN(C)C(=O)[C@H](Cc2ccc(C(F)(F)F)cc2)N(C)C(=O)[C@@H]2CCN2C(=O)[C@H](C)N(C)C1=O` [Compound 462] (cyclo([Ac4c][NMeI][NMedβ3hAla][NMeL]I[NMeA][Aze][NMePhe(4-CF3)][Sar][hPhe(3-Cl-4-CF3)][Pro(4,4-F2)])), the figure is 0.012 µM; as for `CC[C@H](C)[C@@H]1NC(=O)[C@H](C)N(C)C(=O)C[C@@H](C)NC(=O)[C@H](C2CCCC2)N(C)C(=O)C2(CCCC2)NC(=O)[C@@H]2CCCN2C(=O)[C@H](CCc2ccc(C(F)(F)F)c(Cl)c2)NC(=O)[C@@H](C)N(C)C(=O)[C@H](Cc2ccccc2Cl)N(C)C(=O)[C@@H]2CCN2C(=O)[C@H](C)N(C)C1=O` [Compound 464] (cyclo([Ac5c][NMeGly(cPent)][d(β3hA)][NMeA]I[NMeA][Aze][NMePhe(2-Cl)][dNMeA][hPhe(3-Cl-4-CF3)]P)), 0.13 µM; as for `CC[C@H](C)[C@@H]1NC(=O)[C@H](CC(C)C)N(C)C(=O)C[C@@H](C(=O)N2CCCCC2)N(C)C(=O)[C@H](C(C)C)N(C)C(=O)C2(CCCC2)NC(=O)[C@@H]2CCCN2C(=O)[C@H](CCc2ccc(C(F)(F)F)c(Cl)c2)NC(=O)CN(C)C(=O)[C@H](COCCC(C)C)N(C)C(=O)[C@@H]2CCN2C(=O)[C@H](C)N(C)C1=O` [Compound 470] ([NMeL]I[NMeA][Aze][NMeS](Isopentyl)[Sar][hPhe(3-Cl-4-CF3)]P[Ac5c][NMeV][NMeD]-Piperidide; lactam N-11), 0.0022 µM. For the compound `CC(C)C[C@H]1C(=O)N[C@@H](CC2CC2)C(=O)N(C)[C@@H](C)C(=O)N2CC[C@H]2C(=O)N(C)[C@@H](CC2CCCCC2)C(=O)N(C)CC(=O)N[C@@H](CCc2ccc(C(F)(F)F)c(Cl)c2)C(=O)N2CCC[C@H]2C(=O)NC2(CCCC2)C(=O)N(C)[C@@H](C(C)C)C(=O)N[C@H](C)CC(=O)N1C` [Compound 474] (cyclo([Ac5c][NMeV][d(β3hA)][NMeL][Ala(cPr)][NMeA][Aze][NMeCha][Sar][hPhe(3-Cl-4-CF3)]P)), the IC50 is 0.28 µM. The result for `CC[C@H](C)[C@@H]1NC(=O)[C@H](CC(C)C)N(C)C(=O)C[C@@H](C)N(C)C(=O)[C@H](C2CCCCC2)N(C)C(=O)C2(CCC2)NC(=O)[C@@H]2CC(F)(F)CN2C(=O)[C@H](CCc2cc(F)c(C(F)(F)F)c(F)c2)NC(=O)CN(C)C(=O)[C@H](Cc2ccc(C)cc2)N(CC)C(=O)[C@@H]2CCN2C(=O)[C@H](C)N(C)C1=O` [Compound 475] (cyclo([Ac4c][NMeChg][NMedβ3hAla][NMeL]I[NMeA][Aze][NEtPhe(4-Me)][Sar][hPhe(3,5-F2-4-CF3)][Pro(4,4-F2)])) reads 0.051 µM.
